Measurements: patent US20250179481A1, “COMPOSITIONS AND METHODS FOR TARGETING, EDITING, OR MODIFYING GENES” (Celyntra Therapeutics SA, priority 2021, published 2025)

Assays:
TIM3 = assay: gNA validation: frameshift (ORF disruption) frequency, TIM3; assay type: cell-based, human; conditions: Jurkat, CRISPResso2 ORF analysis
Protocol: Initial quality assessment of the obtained reads was performed with FastQC36. The sequencing data were aligned and analyzed with the CRISPResso2 software, using CRISPRessoBatch command with the parameters—cleavage_offset 1—quantification_window_size 10—quantification_window_center 1—expand_ambiguous_alignments for the INDEL frequency analysis. For the ORF disruption analysis, CRISPRessoBatch command with the parameters—cleavage_offset 1—coding_seq <EXON_SEQ>—quantification_window_size 0—quantification_window_center 1—expand_ambiguous_alignments was used. Modification rates from the CRISPResso2 software output were analyzed in Excel.
(§1) High-efficiency gNAs identified in our initial analysis were validated by assaying INDEL frequency for the top three or five gNAs for each of the selected immunologically relevant genes (FIG. 15). […] Alternating grey and white zones on the plot represent groups of three to five high-efficiency gNAs per locus. […] Using the CRISPresso2 software, the degree of open reading frame (ORF) disruption for each of the validated gNAs was estimated (FIG. 15). In addition, for four high-efficiency gNAs targeting three different exons at the PDCD1 locus, surface expression of the PDCD1 protein was measured by flow cytometry 4, 7, and 11 days post-transfection (data not shown).
Average fraction of INDELs leading to frameshifts (dashed line) is approx. 66%. […]

CSF2 [1] = assay: On-target Amplicon-NGS in Pan T-cells, CSF2; assay type: cell-based, human
Text: (§2) T-cells were isolated […] buffy coats and nucleofected after two days. The buffy coats were procured from the Rigshospitalet in Copenhagen, Denmark. The Pan-T cells were enriched by negative selection using an Easy Sep Human T-cell Isolation Kit from StemCell Technologies. The RNPs were formed by mixing gRNAs with Art-Mad7mam+ prior to nucleofection with Jurkat or T-cells. In some cases, synthetic ssODNs (Table 11) with a length of 200 nt were included in the transfections to evaluate impact on frame shift mutation rates by HDR rather than relying on NHEJ alone in an effort to maximize functional disruption. The ssODNs were designed to comprise a deletion of the spacer and PAM sequence thereby resulting in a programmed frame shift. After transfection, the cells were cultivated and assayed for the different readouts. The nucleofection with dual gRNAs followed a similar protocol, but with minor differences in pre-assembling of the gRNAs. Briefly, the two dual RNAs (modulator and targeter) are combined in a molecular ratio of 1:1 (400 μM Modulator
(§3) At the genome level, Amplicon-NGS was used to determine the type and mutation frequency at the on-target site. The Amplicon-NGS assay is based on the amplification of the on-target site using specific primer pairs. The primers are designed to have the predicted cutting site at the center and a length of 180-280 nt. The amplicons are indexed for NGS and sequenced on an Illumina MiSeq system. The analysis was performed using the Crispresso script. Crispresso requires the input of a configuration file comprised of the specific gRNA sequence, primer sequences and the theoretical amplicon that is based on the alignment of the primer pair to the reference human genome GRCh38. In addition, for HDR analysis associated with ssODN-programmable editing a reference sequence with the specific mutations can be input into the configuration file. Crispresso aligns the sequencing reads to the reference amplicon and analyzes the mutation type and frequency −/+10 nt at the putative cut site of Art-Mad7mam+ based on the provided gRNA sequence. As output, Crispresso delivers different mutation types and their frequencies: Substitutions, INDELs, HDR Unmodified, HDR INDELs, HDR+substitutions.
(§4) To further test the effects of ssODNs, single and dual gRNAs were mixed with Art-MAD7mam+ nuclease, and in some cases included a ssODN designed to create a programmed disruption in the target gene. The freshly isolated Pan-T cells were activated and cultured for 2 days, and RNPs−/+ssODNs were transfected using the Lonza 96-well plate shuttle. […]

CSF2 [2] = assay: Cutting efficiency by Amplicon-NGS in Jurkat cells, CSF2; assay type: cell-based, human
Text: as §2
At the genome level, Amplicon-NGS was used to determine the type and mutation frequency at the on-target site. The Amplicon-NGS assay is based on the amplification of the on-target site using specific primer pairs. […] Crispresso aligns the sequencing reads to the reference amplicon and analyzes the mutation type and frequency −/+10 nt at the putative cut site of Art-Mad7mam+ based on the provided gRNA sequence. […]
The cutting efficiency was calculated as the percentage of reads with any NHEJ modification (including insertions, deletions, and/or substitutions) of the total number of reads that were aligned to the reference amplicon. […]
The top gRNAs identified in the tiling experiments in, were further tested by performing additional nucleofections in Jurkat cells and measuring viability, INDEL formation by amplicon-NGS, and functional flow cytometry assays. […] For the Amplicon-NGS readout three days after transfection, genomic DNA was prepared, amplicons generated, and sequence analyzed. […]

CSF2 [3] = assay: Functional KO in Pan T-cells: intracellular CSF2 staining after PMA and Ionomycin; assay type: cell-based, human
Protocol: Protein expression for targeted genes was measured by antibody staining against the target protein to quantify functional disruption of the target gene. The efficiency of functional disruption was verified by antibody staining and quantified as the negative cell population by flow cytometry. TRBC, CD3E and CD40LG are located at the cell surface and living cells were stained with the corresponding antibodies. Since CSF2 is a secreted protein, cells were first activated, secretion was blocked, cells were fixed with formaldehyde, and permeabilized before the staining procedure. Given CD40LG and CSF2 are expressed upon stimulation of primary T-cells, cells were activated first to enhance their expression. The induction of CD40LG and CSF2 was achieved using anti-CD3/CD28 and PMA/Ionomycin, respectively.
The best CSF2 gRNA was identified as gCSF2_007 in the Jurkat experiment. In Pan T-cells, the cutting efficiency was approximately 65% and 45% and could be increased by ssODN inclusion to ˜80 and 70% for the regular and STAR design, respectively (FIG. 33E). […] The cells were treated with PMA and Ionomycin to strongly activate the cells and blocked the secretion of the protein with Golgiplug and Golgistop and stained the cells after fixation and permeabilization for the intracellular accumulated CSF2 proteins.

PDCD1 protein = assay: Surface expression of the PDCD1 protein by flow cytometry in Jurkat cells; assay type: cell-based, human; conditions: flow cytometry 4, 7 and 11 days post-transfection, crPDCD1_2 value at day 4, same at day 11
Protocol: For detection of PDCD1 knock-out efficiency, approx. 250,000 Jurkat cells per sample were transferred onto 96-well V-bottom cell culture plates and assessed following a series of consecutive washing and staining steps. The first step included centrifuging the cells at 300 g for 5 minutes at 4° C., and discarding the supernatant. Afterwards, the cells were stained using 100 μL Cell Staining Buffer (Biolegend) with APC/Cyanine7 anti-human CD279 (PD-1) antibody (1:100: Biolegend) and incubated for 30 minutes at 4° C., in the dark. The cells were then centrifuged at 300 g for 5 minutes at 4° C., and the supernatant discarded. The next step included two repeats of centrifugation at 300 g for 5 minutes at 4° C., supernatant removal, and cell washing in 150 μL ice-cold Cell Staining Buffer (Biolegend). In the final step, the cells were re-suspended in 100 μL Cell Staining Buffer for the flow cytometry measurements (excitation: red laser; emission: […]).
as §1

TRBC1 and TRBC2 = assay: On-target Amplicon-NGS in Pan T-cells, TRBC; assay type: cell-based, human
Text: as §2, §3, §4

[4] = tested on: predicted off-target sites; assay: INDEL frequency at predicted off-target sites (CasOFFinder, targeted deep sequencing) in Jurkat cells; assay type: cell-based, human; conditions: crPDCD1: <=4 mismatches, remaining gNAs <=3 mismatches, vs MOCK, Pairwise T-test
Protocol: Another consideration for selecting gNAs is the potential for off-target cleavage events. The list of validated gNAs was analyzed using the CasOFFinder software to predict potential off-target editing sites in the genome with up to four mismatches between the gNA and the target DNA sequence. Using the Bioconductor R packages, the predicted off-target sites were matched with the human gene database, and those sites that targeted exons and introns within the genes were extracted. Afterwards, the degree of editing activity at these sites was examined by targeted next-generation sequencing, more specifically, at 25 predicted off-target sites for the top-two PDCD1 gNAs, i.e., crPDCD1_1 and crPDCD1_2. […] INDEL frequency at 43 putative off-target sites with up to three mismatches between gNA and target DNA sequence were assayed for the top-two gNAs targeting seven remaining genes (i.e., TIM3, LAG3, TIG1T, CTLA4, PTPN6, PTPN11, and CD247; spacer sequences in Table 5). […] Specifically. FIGS. 18-19 show INDEL frequency of MAD7 (n=3; Mean±SD) in T-cell leukemic cell line at predicted off-target sites analyzed by targeted deep sequencing. For crPDCD1. INDEL frequency was analyzed at the putative off-target editing sites with ≤4 mismatches between the gNA and target DNA sequence, and with ≤3 mismatches on the remaining gNAs.

human genes = assay: Editing efficiency of tested crRNAs / guide nucleic acids (Tables 7-10) detected in human cells; assay type: cell-based; conditions: Target Gene TIGIT; tested crRNAs targeting human genes

With “crTIM3_1: validated high-efficiency gNA, TIM3 (guide CTTGTAAGTAGTAGCAGCAGC; spacer only, further chemistry not given here)” the “frameshifts frequency (fraction of frameshift to INDEL)” value (TIM3) was 23%.

With “gCSF2_007: best CSF2 gRNA; dual form Targeter_CSF2_007 UUGUAGAUCACAGGAGCCGACCUGCCUAC (synthetic gRNA ordered from IDT, chemistry not given here)” the cutting efficiency (CSF2 [1]; STAR design) was roughly 45%, the cutting efficiency (CSF2 [1]; STAR design, ssODN inclusion) was roughly 70% and the cutting efficiency (CSF2 [1]; regular design) was “approximately 65%”. The cutting efficiency (CSF2 [1]; regular design, ssODN inclusion) was roughly 80%, the “Average on-target editing efficiency” value (CSF2 [2]; CSF2 gRNAs, Jurkat cells, Amplicon-NGS) was 31.1 and the Total score (CSF2 [2]; CSF2 gRNAs, combines on-target editing efficiency and predicted off-target score) was 30.7. The “cutting efficiency (rank among the three CSF2 gRNAs)” value (CSF2 [2]; Jurkat verification) was “highest”, the “negative CSF2 cell population” value (CSF2 [3]; dual gRNA) was roughly 60% and the “negative CSF2 cell population” value (CSF2 [3]; dual gRNA with the ssODN) was roughly 80%. For the same substance, the “negative CSF2 cell population” value (CSF2 [3]; regular gRNA with the ssODN) was roughly 90% and the “negative CSF2 cell population” value (CSF2 [3]; regular gRNA, 70% of control cells CSF2 positive) was roughly 75%.

In the case of “crPDCD1_4: high-efficiency gNA targeting the PDCD1 locus (guide CTAGCGGAATGGGCACCTCAT; spacer only, further chemistry not given here)”, the “surface expression of the PDCD1 protein” value (PDCD1 protein) is reported as 85%.

For “crPDCD1_3: high-efficiency gNA targeting the PDCD1 locus (guide CAGTGGCGAGAGAAGACCCCG; spacer only, further chemistry not given here)”, the “surface expression of the PDCD1 protein” value (PDCD1 protein) was 35%.

With “crTIM3_3: validated high-efficiency gNA, TIM3 (guide TAAGTAGTAGCAGCAGCAGCA; spacer only, further chemistry not given here)” the “frameshifts frequency (fraction of frameshift to INDEL)” value (TIM3) was 44%.

With “gTRBC1_2_003: gRNA targeting both TRBC1 and TRBC2; dual form Targeter_TRBC1_2_003 UUGUAGAUAGCCAUCAGAAGCAGAGAUCU (dual-guide targeter with IDT AltR2 3' modification, chemistry undefined, further chemistry not given here)” the “lower INDEL frequency, dual vs regular configuration” value (TRBC1 and TRBC2) was roughly 5%, the “perfect HDR rate” value (TRBC1 and TRBC2; inclusion of ssODNs) was roughly 40% and the mutation rate (TRBC1 and TRBC2; inclusion of ssODNs, all cases) was greater than 90%. For the same substance, the “INDEL frequency at the on-target site” value (TRBC1 and TRBC2; regular gRNA configuration) was roughly 90%.

“crPDCD1_5: high-efficiency gNA targeting the PDCD1 locus (guide GTGCTAAACTGGTACCGCATG; spacer only, further chemistry not given here)” was tested, and the “surface expression of the PDCD1 protein” value (PDCD1 protein) was 85%.

With “crPDCD1_1: top-two PDCD1 gNA (guide GCACGAAGCTCTCCGATGTGT; spacer only, further chemistry not given here)” the “INDEL frequency at predicted off-target sites” value [4] was “No significant INDEL frequency”.

“gTIGIT_27 (guide CTCCTGAGGTCACCTTCCACA; chemistry not given here)” was tested, and the “% Indel” value (human genes) was 1.6%.

For “gTIGIT_25 (guide TAGAAGAAAGCCCTCAGAATC; chemistry not given here)”, the “% Indel” value (human genes) was 1.2%.
